Counter-ions that a name gives are not always drawn. Like-named read-outs stand apart in the source and are kept apart here. Values belong to the compound of their own block, whether it stands above or below them.
Assays:
[1] = test system: AML patient samples; test: 10-point dose-response drug screen of statins against AML patient samples, 3-day drug sensitivity assay; assay type: cell-based, human; details: for IC50: 3-day assay
Experimental: Drug sensitivity assays were performed using a 1,536-well platform where all cells and reagents were deposited in wells using an acoustic liquid handling unit that is highly accurate for dispensing of nanoliter volumes of liquid. […] After dispensing the cells into the wells, an independent drug at a known concentration is added to each well and incubated with the cells. After three days, the percentage of live cells in each well is determined to assess the killing efficiency of each compound. […] Cell viability assays are known to those of skill in the art. See, for example, Pemovska et al., Individualized systems medicine strategy to tailor treatments for patients with chemorefractory acute myeloid leukemia. Cancer Discovery 3:1416-1429, 2013; Pabst et al., Identification of small molecules that support human leukemia stem cell activity ex vivo. Nature Methods 11:436-442, 2014; Baccelli et al., A novel approach for the identification of efficient combination therapies in primary human acute myeloid leukemia specimens. Blood Cancer Journal 7:e529, 2017. In studies described herein, the 1,536-well format was utilized, which allowed for use of four times fewer cells as well as less drug and media components due to the small assay volume of 5 microliters. […] Other compounds like CellTiter-Glo (Promega, Madison, Wis.) are equally appropriate reagents for determining cell viability.
Conditions for the drug screening assays were as described in Pabst et al., Identification of small molecules that support human leukemia stem cell activity ex vivo, Nature Methods 11:436-442, 2014). Using this protocol, cells were cultured in Iscove's Modified Dulbecco's Medium (IMDM), 15% BIT (bovine serum albumin, insulin, transferrin; Stem Cell Technologies 09500 (Vancouver, Calif.)), 100 ng/ml SCF (Shenandoah 100-04 (Warwick, Pa.)), 50 ng/ml FLT3L (Shenandoah 100-21), 20 ng/ml IL-3 (Shenandoah 100-80), 20 ng/ml G-CSF (Shenandoah 100-72), 10^-4 M β-mercaptoethanol, gentamicin (50 μg/ml) and ciprofloxacin (10 μg/ml).
Cells were removed from liquid nitrogen and placed in a 37° C. bath, just until thawed. For 1,536-well screens utilizing 6,000 wells about 100 million cells were thawed. The volume was doubled with pre-warmed culture media and placed on ice for about one to two minutes. The cells were brought to a final volume of about 8 to 10 mL before spinning down at 1,100 rpm for 5 min at 10° C. The pelleted cells were resuspended in 10 mL of culture media and plated in a tissue-culture treated T75 flask at a density of 1 to 2 million cells/ml. The cells were cultured overnight prior to fluorescence-activated cell sorting of viable cells on the following day.
After cells were cultured overnight, a cell scraper was used to remove any cells that adhered to the plastic. The cells were gently pipetted up and down to break up aggregates. Then, the entire volume was transferred to a 50 mL conical tube through a 70 micron cell strainer to remove cell clumps. The T75 flask was rinsed and scraped with about 10 mL HBSS and transferred to the same 50 mL conical tube through the strainer. The harvested cells were spun down at 1,100 rpm for 5 min at 10° C. The cells were then resuspendd in about 300-500 microliters FACS buffer (HBSS+2% FBS+1× propidium iodide) and transferred to a FACS tube. The tube was placed on ice and viable cells that are forward- and side-scatter gated on viable myeloid blasts were sorted by FACS (the scatter gate should exclude small lymphocytes, large myeloid cells, and debris). After sorting the required number of viable cells, the cells were spun down at 1,100 rpm for 5 min at 10° C. and subsequently resuspended at 4,000-4,500 cells per 5 microliter volume of complete culture media with growth factors and penicillin/streptomycin.

[2] = test system: relapsed AML cells; test: Drug sensitivity assay, 1,536-well, 3-day culture with individual approved drugs at 10 μM, viability by alamarBlue; assay type: cell-based, human
Outline: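 FACS-sorted viable myeloid blasts from thawed AML samples, 4,000-4,500 cells per 5 μL well, cultured in IMDM with 15% BIT, SCF, FLT3L, IL-3, G-CSF. Drugs added per well; after three days percentage of live cells measured to gauge killing.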

[3] = patient sample AML 280, read-out: IC50 AML 280
[4] = patient sample AML 285, read-out: IC50 AML 285
[5] = patient sample AML 290, read-out: IC50 AML 290
[6] = patient sample AML 297, read-out: IC50 AML 297
[7] = patient sample AML 299, read-out: IC50 AML 299
[8] = patient sample AML 307, read-out: IC50 AML 307
[9] = patient sample AML 330, read-out: IC50 AML 330
[10] = patient sample AML 339, read-out: IC50 AML 339
[11] = patient sample AML 340, read-out: IC50 AML 340
[12] = patient sample AML 343, read-out: IC50 AML 343
[13] = number of relapsed AML cases out of 18 tested with >70% cell death, 10 μM, 3-day culture
[14] = Homo sapiens, 72 h, patient sample AML 280, read-out: IC50 AML 280
[15] = Homo sapiens, 72 h, patient sample AML 285, read-out: IC50 AML 285
[16] = Homo sapiens, 72 h, patient sample AML 290, read-out: IC50 AML 290
[17] = Homo sapiens, 72 h, patient sample AML 297, read-out: IC50 AML 297
[18] = Homo sapiens, 72 h, patient sample AML 299, read-out: IC50 AML 299
[19] = Homo sapiens, 72 h, patient sample AML 307, read-out: IC50 AML 307
[20] = Homo sapiens, 72 h, patient sample AML 330, read-out: IC50 AML 330
[21] = Homo sapiens, 72 h, patient sample AML 339, read-out: IC50 AML 339
[22] = Homo sapiens, 72 h, patient sample AML 340, read-out: IC50 AML 340
[23] = Homo sapiens, 72 h, patient sample AML 343, read-out: IC50 AML 343

Compound: CC(C)c1nc(N(C)S(C)(=O)=O)nc(-c2ccc(F)cc2)c1/C=C/[C@@H](O)C[C@@H](O)CC(=O)[O-].CC(C)c1nc(N(C)S(C)(=O)=O)nc(-c2ccc(F)cc2)c1/C=C/[C@@H](O)C[C@@H](O)CC(=O)[O-].[Ca+2] [ROSUVASTATIN CALCIUM (Crestor), ROSUVASTATIN CALCIUM]
IC50 [1, 3]: 8.35 µM
IC50 [1, 4]: 1.47 µM
IC50 [1, 5]: 1.46 µM
IC50 [1, 6]: > 10 µM
IC50 [1, 7]: > 10 µM
IC50 [1, 8]: 3.79 µM
IC50 [1, 9]: > 10 µM
IC50 [1, 10]: > 10 µM
IC50 [1, 11]: 2.52 µM
IC50 [1, 12]: > 10 µM
#Cases >70% cell death [2, 13]: 9

IC50 [1, 14]: > 10 µM
IC50 [1, 15]: 3.81 µM
IC50 [1, 16]: 4.41 µM
IC50 [1, 17]: > 10 µM
IC50 [1, 18]: > 10 µM
IC50 [1, 19]: > 10 µM
IC50 [1, 20]: > 10 µM
IC50 [1, 21]: > 10 µM
IC50 [1, 22]: 8.92 µM
IC50 [1, 23]: > 10 µM
Compound: CC[C@H](C)C(=O)O[C@H]1C[C@@H](C)C=C2C=C[C@H](C)[C@H](CC[C@@H]3C[C@@H](O)CC(=O)O3)[C@H]21 [LOVASTATIN]
#Cases >70% cell death [2, 13]: 2

Compound: CC(C)c1c(C(=O)Nc2ccccc2)c(-c2ccccc2)c(-c2ccc(F)cc2)n1CC[C@@H](O)C[C@@H](O)CC(=O)[O-].CC(C)c1c(C(=O)Nc2ccccc2)c(-c2ccccc2)c(-c2ccc(F)cc2)n1CC[C@@H](O)C[C@@H](O)CC(=O)[O-].[Ca+2] [ATORVASTATIN CALCIUM]
statin-mediated killing ([1]; highly sensitive cases 285, 340 and 290, result in words): most significant activity
IC50 [1, 3]: 2.24 µM
IC50 [1, 4]: 0.475 µM
IC50 [1, 5]: 0.584 µM
IC50 [1, 6]: > 10 µM
IC50 [1, 7]: 2.9 µM
IC50 [1, 8]: 1.09 µM
IC50 [1, 9]: > 10 µM
IC50 [1, 10]: 9.12 µM
IC50 [1, 11]: 0.732 µM
IC50 [1, 12]: > 10 µM
#Cases >70% cell death [2, 13]: 12

IC50 [1, 14]: > 10 µM
IC50 [1, 15]: > 10 µM
IC50 [1, 16]: > 10 µM
IC50 [1, 17]: > 10 µM
IC50 [1, 18]: > 10 µM
IC50 [1, 19]: > 10 µM
IC50 [1, 20]: > 10 µM
IC50 [1, 21]: > 10 µM
IC50 [1, 22]: > 10 µM
IC50 [1, 23]: > 10 µM
Compound: CC[C@H](C)C(=O)O[C@H]1C[C@H](O)C=C2C=C[C@H](C)[C@H](CC[C@@H](O)C[C@@H](O)CC(=O)O)[C@H]21 [PRAVASTATIN]
#Cases >70% cell death [2, 13]: 1

Compound: COc1cc2c(cc1OC)CN(CCc1ccc(NC(=O)c3cccc4c(=O)c5cccc(OC)c5[nH]c34)cc1)CC2
#Cases >70% cell death [2, 13]: 2

Compound: O=C(CCCN1CCN(c2ccccn2)CC1)c1ccc(F)cc1 [AZAPERONE]
#Cases >70% cell death [2, 13]: 1

Compound: Cc1ccc(C(=O)N(CCCN)[C@@H](c2nc3cc(Cl)ccc3c(=O)n2Cc2ccccc2)C(C)C)cc1 [ISPINESIB MESYLATE]
#Cases >70% cell death [2, 13]: 2

Compound: CCOc1ccc2nc(S(N)(=O)=O)sc2c1 [ETHOXZOLAMIDE]
#Cases >70% cell death [2, 13]: 2

Compound: CC(C)N1CCN(c2ccc(OCC3COC(Cn4cncn4)(c4ccc(Cl)cc4Cl)O3)cc2)CC1 (stereo not drawn) [TERCONAZOLE]
#Cases >70% cell death [2, 13]: 7

Compound: AZD-1152
#Cases >70% cell death [2, 13]: 5

Compound: C[C@H]1O[C@@H](O[C@H]2[C@@H](O)C[C@H](O[C@H]3[C@@H](O)C[C@H](O[C@H]4CC[C@@]5(C)[C@H](CC[C@@H]6[C@@H]5CC[C@]5(C)[C@@H](C7=CC(=O)OC7)CC[C@]65O)C4)O[C@@H]3C)O[C@@H]2C)C[C@H](O)[C@@H]1O [DIGITOXIN]
#Cases >70% cell death [2, 13]: 18

Compound: COCCOC(=O)C1=C(C)NC(C)=C(C(=O)OC/C=C/c2ccccc2)C1c1cccc([N+](=O)[O-])c1 (stereo not drawn) [CILNIDIPINE]
#Cases >70% cell death [2, 13]: 1

Compound: C1CCC(C(CC2CCCCN2)C2CCCCC2)CC1 (stereo not drawn) [PERHEXILINE MALEATE]
#Cases >70% cell death [2, 13]: 13

Compound: COCCCC/C(=N\OCCN)c1ccc(C(F)(F)F)cc1 [FLUVOXAMINE MALEATE]
#Cases >70% cell death [2, 13]: 1

Compound: Nc1nc(Cl)nc2c1ncn2[C@H]1C[C@H](O)[C@@H](CO)O1 [CLADRIBINE]
#Cases >70% cell death [2, 13]: 17

Compound: Nc1ccn([C@@H]2O[C@H](CO)[C@@H](O)C2(F)F)c(=O)n1 [GEMCITABINE]
#Cases >70% cell death [2, 13]: 16

Compound: Cn1c(=O)c2c(ncn2CC2OCCO2)n(C)c1=O [DOXOFYLLINE]
#Cases >70% cell death [2, 13]: 1

Compound: C[C@@H]1C[C@@H]([C@H](O)CC2CC(=O)NC(=O)C2)C(=O)[C@@H](C)C1 [CYCLOHEXIMIDE]
#Cases >70% cell death [2, 13]: 18

Compound: CCCOc1cc(N)ccc1C(=O)OCCN(CC)CC [PROPOXYCAINE HYDROCHLORIDE]
#Cases >70% cell death [2, 13]: 1

Compound: Nc1nc2nc[nH]c2c(=S)[nH]1 [THIOGUANINE]
#Cases >70% cell death [2, 13]: 14

Compound: CC(NCCC(c1ccccc1)c1ccccc1)c1ccccc1 (stereo not drawn) [FENDILINE HYDROCHLORIDE]
#Cases >70% cell death [2, 13]: 1

Compound: COC(=O)Nc1nc2ccc(C(=O)c3ccccc3)cc2[nH]1 [MEBENDAZOLE]
#Cases >70% cell death [2, 13]: 5

Compound: C#Cc1cccc(Nc2ncnc3cc(OCCOC)c(OCCOC)cc23)c1 [ERLOTINIB]
#Cases >70% cell death [2, 13]: 6

Compound: Cc1nnc(NS(=O)(=O)c2ccc(N)cc2)s1 [SULFAMETHIZOLE]
#Cases >70% cell death [2, 13]: 18

Compound: CCOc1cc2ncc(C#N)c(Nc3ccc(OCc4cccc(F)c4)c(Cl)c3)c2cc1NC(=O)/C=C/CN(C)C [HKI 357]
#Cases >70% cell death [2, 13]: 4

Compound: CN(C)CC(=O)N1CCC(c2ccc(NC(=O)c3nc(C#N)c[nH]3)c(C3=CCCCC3)c2)CC1 [JNJ-28312141]
#Cases >70% cell death [2, 13]: 7

Compound: C[C@@H](NCCCc1cccc(C(F)(F)F)c1)c1cccc2ccccc12 [AMG-073 HCL]
#Cases >70% cell death [2, 13]: 1

Compound: CC(=O)OCC(=O)[C@@]12OC3(CCCC3)O[C@@H]1C[C@H]1[C@@H]3CCC4=CC(=O)C=C[C@]4(C)[C@@]3(F)[C@@H](O)C[C@@]12C [AMCINONIDE]
#Cases >70% cell death [2, 13]: 1

Compound: O=C1NCCc2[nH]c(-c3ccncc3)cc21 [PHA-767491]
#Cases >70% cell death [2, 13]: 18

Compound: COCCn1c2c([n+](Cc3cnccn3)c1C)C(=O)c1ccccc1C2=O [YM-155]
#Cases >70% cell death [2, 13]: 18

Compound: CC(=O)[C@@]1(O)CC[C@H]2[C@@H]3C=C(Cl)C4=CC(=O)[C@@H]5C[C@@H]5[C@]4(C)[C@H]3CC[C@@]21C [CYPROTERONE]
#Cases >70% cell death [2, 13]: 1

Compound: N#CCNC(=O)c1ccc(-c2ccnc(Nc3ccc(N4CCOCC4)cc3)n2)cc1 [CYT387]
#Cases >70% cell death [2, 13]: 14

Compound: CN1CCC[C@@H]1CCO[C@](C)(c1ccccc1)c1ccc(Cl)cc1 [CLEMASTINE]
#Cases >70% cell death [2, 13]: 1

Compound: COC(=O)C1=C(C)NC(C)=C(C(=O)OCCCN2CCC(c3ccccc3)(c3ccccc3)CC2)[C@H]1c1cccc([N+](=O)[O-])c1 [NIGULDIPINE]
#Cases >70% cell death [2]: 12
